Test systems include Trichoderma asperellum; Fusarium solani; Rhizoctonia solani; Fusarium oxysporum; Ramulariopsis gossypii.
What all share (assay): ≥ marks a high value that may be exact or a test limit, other limits are often not marked, values filed in µg/mL are converted to µM
The subject of assay [1] is Acinetobacter baumannii KCTC 2508.
Assay [2] has as its system Pseudomonas aeruginosa ATCC 27853.
Assay [3] deals with Klebsiella pneumoniae KCTC 2208.
Assay [4] deals with Staphylococcus aureus NCTC 12493.
Assay [5] has as its system Enterococcus faecalis NCTC 12697.
Assay [6] has as its system Escherichia coli NCTC 10418.
Assay [7] deals with Klebsiella pneumoniae ATCC 43816.
Assay [8] has as its system Candida albicans NCYC 1467.
For assay [9], the system named is Staphylococcus aureus NCTC 10788.
Assay [10] has as its system Escherichia coli CCARM 1238.
In assay [11] the test system is Bacillus subtilis KCTC 1998.
Assay [12] concerns Escherichia coli CCARM 1229.
Assay [13] deals with Trichosporon beigelii KCTC 7707.
The subject of assay [14] is Staphylococcus aureus ATCC 25923.
The subject of assay [15] is Salmonella typhimurium KCTC 1926.
For assay [16], the system named is Listeria monocytogenes KCTC 3710.
In assay [17] the test system is Candida albicans KCTC 7270.
The subject of assay [18] is Staphylococcus aureus CCARM 3518.
Assay [19] has as its system Staphylococcus aureus CCARM 3090.
Assay [20] concerns Escherichia coli ATCC 25922.
The test system of assay [21] is Pseudomonas aeruginosa 4891.
For assay [22], the system named is Pseudomonas aeruginosa 4007.
The subject of assay [23] is Pectobacterium carotovorum.
Assay [24] deals with Bacillus cereus ATCC 14579.
Assay [25] relates to Cryptococcus neoformans ATCC 28957.
For assay [26], the system named is Xanthomonas campestris pv. citri.
In assay [27] the test system is Bacillus subtilis ATCC 23857.
Assay [28] relates to Fusarium oxysporum f.sp. vasinfectum.
The subject of assay [29] is Pseudomonas syringae pv. tabaci.
Assay [30] relates to Candida albicans ATCC 90028.

Molecules are shown by their SMILES. Converted amounts (≈) assume the structure as drawn. Bounds are passed on as bounds.

Experimental findings from DBAASP are described below.

`CC[C@H](C)[C@H](N)C(=O)N[C@@H](C)C(=O)N[C@@H](CCCN=C(N)N)C(=O)N[C@@H](CCCN=C(N)N)C(=O)N[C@@H](C)C(=O)N[C@@H](CC(C)C)C(=O)N[C@@H](CCCCN)C(=O)N[C@@H](CCCCN)C(=O)N[C@@H](C)C(=O)N[C@@H](CCCCN)C(=O)N[C@@H](CCCN=C(N)N)C(=O)N[C@@H](C)C(=O)N[C@@H](C)C(=O)N[C@@H](Cc1cnc[nH]1)C(=O)N[C@@H](CCCCN)C(=O)N[C@H](C(=O)N1CCC[C@H]1C(=O)N[C@@H](C)C(=O)N[C@@H](C)C(=O)N[C@@H](CCCCN)C(=O)N[C@@H](CCCCN)C(=O)N[C@@H](Cc1ccccc1)C(=O)N[C@@H](C)C(=O)N[C@@H](CCCN=C(N)N)C(=O)N[C@@H](CCCN=C(N)N)C(N)=O)[C@@H](C)CC` [IARRALKKAKRAAHKIPAAKKFARR]: the MIC was 4 µM (≈ 11.4 µg/mL) in [1], 8 µM (≈ 22.9 µg/mL) in assay [2] and 2 µM (≈ 5.71 µg/mL) in [3].
Regarding `CC(C)C[C@H](NC(=O)[C@H](C)N)C(=O)N[C@@H](Cc1c[nH]c2ccccc12)C(=O)N[C@@H](CCCCN)C(=O)N[C@@H](CO)C(=O)N[C@@H](CC(C)C)C(=O)N[C@@H](CC(C)C)C(=O)N[C@@H](CCCCN)C(=O)N[C@@H](CC(N)=O)C(=O)N[C@H](C(=O)NCC(=O)N[C@@H](CCCCN)C(=O)N[C@@H](C)C(N)=O)C(C)C` [ALWKSLLKNVGKA], the minimum inhibitory concentration (MIC) in assay [4] was no less than 128 µM; in assay [2], 128 µM (≈ 183 µg/mL); in [5] it was no less than 256 µM; in assay [6], no less than 64 µM; in assay [7], no less than 128 µM; in assay [8] it was no less than 32 µM. This compound also came in with an MIC in assay [9] of no less than 64 µM.
As to `CC[C@H](C)[C@H](NC(=O)[C@H](CC(C)C)NC(=O)[C@H](CCCCN)NC(=O)[C@@H](NC(=O)[C@H](C)NC(=O)[C@H](CCC(=O)O)NC(=O)[C@H](Cc1cnc[nH]1)NC(=O)[C@@H](NC(=O)CNC(=O)[C@H](CCC(N)=O)NC(=O)[C@H](Cc1ccccc1)NC(=O)[C@@H](NC(=O)[C@H](CCCCN)NC(=O)[C@H](CCCCN)NC(=O)[C@H](CC(C)C)NC(=O)[C@H](C)NC(=O)[C@H](CC(N)=O)NC(=O)[C@@H](N)CC(C)C)C(C)C)[C@@H](C)CC)[C@@H](C)CC)C(N)=O` [LNALKKVFQGIHEAIKLI], the MIC in [10] came to 4 µM (≈ 8.14 µg/mL); in assay [11], 8 µM (≈ 16.3 µg/mL); in assay [12], 4 µM (≈ 8.14 µg/mL); in assay [13], 16 µM (≈ 32.6 µg/mL); in [14] it was 8 µM (≈ 16.3 µg/mL); in assay [2] it was 4 µM (≈ 8.14 µg/mL). Moreover, the MIC in [15] is 4 µM (≈ 8.14 µg/mL); in assay [16] it was 8 µM (≈ 16.3 µg/mL); in [17] it was 16 µM (≈ 32.6 µg/mL); in assay [18], 8 µM (≈ 16.3 µg/mL); in assay [19], 8 µM (≈ 16.3 µg/mL); in assay [20] it was 4 µM (≈ 8.14 µg/mL). The figures for the MIC in assay [21] and in [22] were 8 µM (≈ 16.3 µg/mL) and 4 µM (≈ 8.14 µg/mL), respectively.
`CC[C@H](C)[C@H](N)C(=O)N[C@@H](C)C(=O)N[C@@H](CCCN=C(N)N)C(=O)N[C@@H](CCCN=C(N)N)C(=O)N[C@@H](C)C(=O)N[C@@H](CC(C)C)C(=O)N[C@@H](CCCCN)C(=O)N[C@@H](CCCCN)C(=O)N[C@@H](C)C(=O)N[C@@H](CCCCN)C(=O)N[C@@H](CCCN=C(N)N)C(=O)N[C@@H](C)C(=O)N[C@@H](C)C(=O)N[C@@H](Cc1cnc[nH]1)C(=O)N[C@@H](CCCCN)C(=O)N[C@H](C(=O)N1CCC[C@H]1C(=O)N[C@@H](CCC(N)=O)C(=O)N[C@@H](CS)C(=O)N[C@@H](CCCCN)C(=O)N[C@@H](CCCCN)C(=O)N[C@@H](Cc1ccccc1)C(=O)NCC(=O)N[C@@H](CCCN=C(N)N)C(=O)N[C@@H](CCCN=C(N)N)C(N)=O)[C@@H](C)CC` [IARRALKKAKRAAHKIPQCKKFGRR]: the MIC is no less than 32 µM in assay [1], 2 µM (≈ 5.86 µg/mL) in assay [2] and 8 µM (≈ 23.5 µg/mL) in assay [3].
`CC[C@H](C)[C@H](NC(=O)CNC(=O)[C@H](CCC(N)=O)NC(=O)[C@H](CO)NC(=O)[C@@H](NC(=O)[C@H](CCCCN)NC(=O)[C@H](CCCCN)NC(=O)[C@H](CC(C)C)NC(=O)[C@H](C)NC(=O)[C@H](CC(N)=O)NC(=O)[C@H](CC(C)C)NC(=O)[C@H](C)N)C(C)C)C(=O)N[C@@H](Cc1cnc[nH]1)C(=O)N[C@@H](CCC(=O)O)C(=O)N[C@@H](C)C(=O)N[C@H](C(=O)N[C@@H](CCCCN)C(=O)N[C@@H](CC(C)C)C(=O)N[C@H](C(=O)N[C@@H](C)C(=O)N[C@@H](CC(N)=O)C(=O)N[C@@H](Cc1cnc[nH]1)C(=O)N[C@H](C(=O)N[C@@H](CCC(N)=O)C(N)=O)C(C)C)[C@@H](C)CC)[C@@H](C)CC` [ALNALKKVSQGIHEAIKLIANHVQ]: the MIC in [10] was 16 µM (≈ 41.5 µg/mL); in assay [11], 16 µM (≈ 41.5 µg/mL); in assay [12], 16 µM (≈ 41.5 µg/mL); in [13], no less than 32 µM; in [14] it was 16 µM (≈ 41.5 µg/mL); in assay [2], 8 µM (≈ 20.8 µg/mL). For the same compound, the minimal inhibitory concentration (MIC) in assay [15] is 8 µM (≈ 20.8 µg/mL); in [16], 16 µM (≈ 41.5 µg/mL); in [17], no less than 32 µM; in [18] it was no less than 32 µM; in assay [19], no less than 32 µM; in assay [20] it was 8 µM (≈ 20.8 µg/mL). Further, the minimum inhibitory concentration (MIC) in [21] and in [22] was no less than 32 µM in each case.
With `CC[C@H](C)[C@H](NC(=O)[C@H](CCCCN)NC(=O)CN)C(=O)N[C@@H](CC(C)C)C(=O)N[C@@H](CCCCN)C(=O)N[C@@H](Cc1ccc(O)cc1)C(=O)N[C@@H](CC(C)C)C(=O)N[C@@H](CC(C)C)C(=O)N[C@@H](Cc1ccc(O)cc1)C(=O)N[C@@H](CC(C)C)C(=O)N[C@@H](CC(C)C)C(=O)N[C@@H](CCCN=C(N)N)C(=O)N[C@@H](CCCCN)C(=O)N[C@@H](Cc1ccc(O)cc1)C(=O)N[C@@H](C)C(=O)N[C@@H](CC(N)=O)C(=O)N[C@@H](CC(C)C)C(=O)N[C@H](C(=O)N[C@H](C(=O)N[C@@H](CCCN=C(N)N)C(N)=O)[C@@H](C)CC)[C@@H](C)CC` [GKILKYLLYLLRKYANLIIR], the minimal inhibitory concentration (MIC) in the assay on Trichoderma asperellum is 1 µM (≈ 2.46 µg/mL); in [23] it was 16 µM (≈ 39.4 µg/mL); in assay [24], 13.3 µM (≈ 32.8 µg/mL); in assay [25] it was 1 µM (≈ 2.46 µg/mL); against Fusarium solani it was 1 µM (≈ 2.46 µg/mL); in assay [26] it was 16 µM (≈ 39.4 µg/mL). The MIC in assay [14] was 8 µM (≈ 19.7 µg/mL); in [2] it was 16 µM (≈ 39.4 µg/mL); in assay [27], 4 µM (≈ 9.86 µg/mL); in assay [28] it was 0.83 µM (≈ 2.05 µg/mL); in the assay on Rhizoctonia solani, 1 µM (≈ 2.46 µg/mL); in [29] it was 4 µM (≈ 9.86 µg/mL). For the same compound, the MIC in assay [30] was 1 µM (≈ 2.46 µg/mL); in assay [20] it was 10.7 µM (≈ 26.3 µg/mL); against Fusarium oxysporum, 2 µM (≈ 4.93 µg/mL); in the assay with Ramulariopsis gossypii, 0.83 µM (≈ 2.05 µg/mL).
